# Assay results: patent EP4467974A1, “NOVEL CHEMOSENSORS AND THEIR USE IN ELECTROCHEMICAL DETECTION METHODS” (Karlsruher Institut für Technologie, priority 2023, dated 2024)
# Where two headings read alike, the source gives them in different places.
# Legend:
# [1] = Binding affinity (log Ka) of guests for the macrocyclic receptor cucurbit[7]uril; conditions: PtC as indicator for CB7 (CB7⊃PtC inclusion complex), result in words
# [2] = cited from earlier work
# [3] = binding affinity for CB7 (host-guest complex)
Compound,"log Ka [2, 3]",also measured
OCCOCCOCCn1cc2[n+](n1)[Pt-2]([Cl])([Cl])[n+]1ccccc1-2 [PtC],,binding affinity [1]: intermediate
NCCc1ccc(O)c(O)c1 [dopamine],5.0,
CC(=O)O[C@H]1C[C@@H]2CC[C@@H]3[C@H](CC[C@@]4(C)[C@H]3C[C@H]([N+]3(C)CCCCC3)[C@@H]4OC(C)=O)[C@@]2(C)C[C@@H]1[N+]1(C)CCCCC1 [pancuronium bromide],,log Ka [2]: 10.23
NCCc1c[nH]c2ccc(O)cc12 [serotonin],4.8,
